This note sets out measurements from ChEMBL document CHEMBL1130773, “Identification of a non peptidic RANTES antagonist” (Bioorg Med Chem Lett, 1998).

One may read the inhibition as how much of the control response was suppressed. A word on the IC50: it is the point on the concentration scale where inhibition reaches its midpoint. Low readings indicate greater potency in that assay, high ones weaker potency in that assay.

Each structure is given as a SMILES string. Calls of active or inactive are those of the source. No cut-off for these calls is given here. Some results are limits rather than exact numbers.

For the first assay, the target named is C-C chemokine receptor type 2 (Homo sapiens) (UniProt P41597). The experiment in a line: Tested for inhibition of [125I]-MCP-1 receptor binding to THP-1 cell membranes at concentrations up to 30 uM; NI means no inhibition.
C-C chemokine receptor type 2 (Homo sapiens), sequence (P41597 whole entry, looked up): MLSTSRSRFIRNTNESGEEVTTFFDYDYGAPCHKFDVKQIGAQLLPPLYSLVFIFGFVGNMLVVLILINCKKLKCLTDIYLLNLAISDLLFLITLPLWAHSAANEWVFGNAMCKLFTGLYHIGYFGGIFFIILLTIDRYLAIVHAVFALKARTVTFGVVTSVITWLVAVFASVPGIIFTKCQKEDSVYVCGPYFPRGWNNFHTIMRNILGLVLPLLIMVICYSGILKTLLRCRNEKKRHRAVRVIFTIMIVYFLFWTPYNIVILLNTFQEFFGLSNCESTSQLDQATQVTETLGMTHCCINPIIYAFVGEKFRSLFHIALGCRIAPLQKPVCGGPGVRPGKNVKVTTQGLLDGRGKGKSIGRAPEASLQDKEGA
Settings: not given
As to `CN(C)S(=O)(=O)c1ccc2c(c1)N(CCCN1CCC3(CC1)C(=O)NCN3c1ccccc1)c1ccccc1S2`, the inhibition result was “inactive”.

System in another assay: not listed separately
Put plainly: Inhibition of [125I]RANTES binding to THP-1 cell membranes rich in C-C chemokine receptor types 1.
Settings: not given
Also noted: species or system Homo sapiens.
For `O=C1NCN(c2ccccc2)C12CCN(CCCN1c3ccccc3Sc3ccc(Cl)cc31)CC2`, the IC50 is 7 µM.

`CN(C)S(=O)(=O)c1ccc2c(c1)N(CCCN1CCC3(CC1)C(=O)NCN3c1ccccc1)c1ccccc1S2` yielded an IC50 of 3 µM. On the same count and under the same terms, under `CN(C)S(=O)(=O)c1ccc2c(c1)N(CCCCN1CCC3(CC1)C(=O)NCN3c1ccccc1)c1ccccc1S2` stands 10 µM; under `CN(CCCc1ccccc1)CCCN1c2ccccc2Sc2ccc(S(=O)(=O)N(C)C)cc21`, 4 µM. Same read-out and setting: under `CN(C)C(=O)c1ccc2c(c1)N(CCCN1CCC3(CC1)C(=O)NCN3c1ccccc1)c1ccccc1S2` stands 5 µM; under `CC(=O)c1ccc2c(c1)N(CCCN1CCC3(CC1)C(=O)NCN3c1ccccc1)c1ccccc1S2`, 3 µM. Still for that read-out and setting: under `CN(C)S(=O)(=O)c1ccc2c(c1)N(CCCN1CCC(C3CCCCC3)CC1)c1ccccc1S2` stands 2 µM; under `CN(C)S(=O)(=O)c1ccc2c(c1)N(CCCN1CCC(c3ccccc3)CC1)c1ccccc1S2`, 4.5 µM.

Compound `N#Cc1ccc2c(c1)N(CCCN1CCC3(CC1)C(=O)NCN3c1ccccc1)c1ccccc1S2` yielded a half-maximal inhibitory concentration (IC50) of 6 µM.

In the case of `O=C1NCN(c2ccccc2)C12CCN(CCCN1c3ccccc3Sc3ccccc31)CC2`, the IC50 is 12 µM. Same read-out and setting: under `COC(=O)c1ccc2c(c1)N(CCCN1CCC3(CC1)C(=O)NCN3c1ccccc1)c1ccccc1S2` stands 4 µM; under `CN(C)S(=O)(=O)c1ccc2c(c1)N(CCCN1CCC(Cc3ccccc3)CC1)c1ccccc1S2`, 7 µM.

The test system of the next assay is THP-1. The experiment in a line: Compound was tested in vitro for inhibition of [125I]RANTES binding to THP-1 cell membranes rich in C-C chemokine receptor type 1. The conditions noted are these: dose or concentration not given here.
Take `CN(C)S(=O)(=O)c1ccc2c(c1)N(CCN1CCC3(CC1)C(=O)NCN3c1ccccc1)c1ccccc1S2`: the inhibition is under 20%.

The compound `CN(C)S(=O)(=O)c1ccc2c(c1)N(CCCN1CCCCC1)c1ccccc1S2` displayed an inhibition of 38%.
